The values below come from PMC3174061 (Journal of the American Chemical Society, 2011).

One data set deals with LipO (Streptomyces sp. SANK 60405, UniProt D4QF28). The experiment in a line: UV/Vis spectroscopy, co-purification. It counts as binding. The following applies: co-purified cofactor, Lys282 internal aldimine expected.
A further data set addresses LipN (Streptomyces sp. SANK 60405, UniProt D4QF27). The experiment in a line: HPLC, MS and NMR of product. It counts as biochemical. The following applies: sugar donor, uridine as surrogate acceptor, 5 mM MgCl2, 30 °C.
Substrate in the data set “purified protein”: NC[C@H]1O[C@@H](n2ccc(=O)[nH]c2=O)[C@H](O)[C@@H]1O
The experiment in a line: purified protein. The following applies: pH 7.5, […] phosphate, 30 °C. The format is biochemical, Escherichia coli.

`Cc1ncc(COP(=O)(O)O)c(C=O)c1O` [PLP]: the “UV/Vis spectroscopy, co-purification” value at LipO is given as “shown by UV/Vis spectroscopy to co-purify with the cofactor PLP”.

As to `NC[C@H]1O[C@H](OP(=O)(O)OP(=O)(O)OC[C@H]2O[C@@H](n3ccc(=O)[nH]c3=O)[C@H](O)[C@@H]2O)[C@H](O)[C@@H]1O` [UDP-5-amino-5-deoxy-α-D-ribose], the “HPLC, MS and NMR of product; donor generated in situ by LipP and LipM” value at LipN was “higher yields were obtained with the genuine sugar donor UDP-5-amino-5-deoxy-α-D-ribose”.

B1: EcUdp (Escherichia coli K-12) (protein)
chain: SKSDVFHLGLTKNDLQGATLAIVPGDPDRVEKIAALMDKPVKLASHREFTTWRAELDGKPVIVCSTGIGGPSTSIAVEELAQLGIRTFLRIGTTGAIQPHINVGDVLVTTASVRLDGASLHFAPLEFPAVADFECTTALVEAAKSIGATTHVGVTASSDTFYPGQERYDTYSGRVVRHFKGSMEEWQAMGVMNYEMESATLLTMCASQGLRAGMVAGVIVNRTQQEIPNAETMKQTESHAVKIVVEAARRLL
For B1, in “purified protein”, the Km result was “(2.0 ± 0.5) × 10^3 µM” and the kcat (as a rule, the maximal rate divided by the concentration of active sites) turned out to be 5.33 ± 0.667 s⁻¹.
